Measurements reported in US20050086710A1, “Method for generating recombinant human platelets for identifying therapeutic target proteins” (priority 2002, published 2005).

Legend:
[1] = tested on: megakaryocyte-derived platelets; test: FACS measurement of platelet surface markers after activation, megakaryocyte-derived platelets; assay type: cell-based, human; set-up: unit not given here; settings: TRAP 25 μM or ADP 5 or 20 μM, 10 min
Experimental: (§1) Then, the mixture was spun down for 5 min. at 1800 rpm (in a tabletop centrifuge). The supernatant was discarded, 300-400 μL staining-buffer were added. FACS measurements were done immediately. For the following studies, antibodies against the following antigens were used: [table] The antibodies were coupled to the following fluorescence systems, where appropriate (either directly or via secondary antibodies) and measured by fluorescence-activated cell sorting (FACS): [table] Platelets which co-expressed the transgene GFP were gated for this marker by studying FITC fluorescence, and the same measurements were then exclusively related to this gate.

[2] = tested on: freshly isolated human platelets; test: FACS measurement of platelet surface markers after activation, freshly isolated platelets; assay type: cell-based; set-up: CD 41 (FACS) / CD 61 (FACS) / CD42b (FACS) / CD62P (FACS): unit not given here; settings: TRAP 25 μM or ADP 5 or 20 μM, 10 min
Experimental: as §1, with “Freshly drawn blood from human volunteers was transferred into a Falcon tube and spun down for 20 min. at 1080 rpm at 20° C. […] The mixture was spun down for 10 min. at 2100 rpm at 20° C. The pellet was resuspended in staining buffer (1×PBS (w/o CA^2+ Mg^+) with 0.1% sodium azide and 2% fetal bovine serum) in a volume of 40 μl. […] Then,” for “Then,”, “(FACS): […]” for “(FACS): [table]”

[3] = tested on: modified platelets expressing GFP; test: FACS measurement of platelet surface markers after activation, modified platelets expressing GFP; assay type: cell-based, human; settings: gated for GFP, TRAP 25 μM or ADP 5 or 20 μM
Source text: (§2) Modified (E1/E3-deficient) flag-tagged adenoviruses for novel transgenes were generated that for expressing a transgene and green fluorescence protein (GFP) under control of two independent CMV promoters in a bi-cistronic system (He T C, Zhou S, da Costa L T, Yu J, Kinzler K W, Vogelstein B. A simplified system for generating modified adenoviruses. Proc Natl Acad Sci USA. 1998; 95:2509-14, purchased from Q Biogene, Heidelberg, Germany). As a control, Ad-GFP without further transgene was used. Large virus stocks were prepared and purified by centrifugation via cesium chloride density gradients. Adenoviral titers were determined using plaque titration and GFP expression titration in […] cells. • 1) Megakaryocytes were harvested at day 8-11 after isolation using a wide sterile single-use pipette and spun down in a 15 mL Falcon-tube at 1650 rpm for 8 min. • 2) The supernatant was discarded and the pellet resuspended in Opimem (at 4×10^5 cells/300 μL). • 3) Adenovirus was added to each well of a 24 well-plate for infection (multiplicity of infection (MOI) of 400 plaque forming units per cell). • 4) Cells were added and mixed by shaking, incubated for 30 min at 37° C. at 5% CO2, then • 5) spun down at 1000 rpm, 20° C. for 10 min.
• 1) Platelets were harvested by centrifugation at 1800 rpm for 1¼ min at 20° C.; the supernatant was diluted 1:1 with platelet wash buffer (1×PBS (w/o CA^2+ Mg^+) with 0.1% sodium azide (pH 7.2+/−0.2)). • 2) They were filtered through a 0.2 μm filter prior to use, stored at 4° C. and spun down at 1800 rpm for 5 min. • 3) The supernatant was discarded. ≈1 mL was left in the tube and washed again with staining buffer (1×PBS (w/o CA^2+Mg^+) with 0.1% sodium azide and 2% fetal bovine serum (FBS) and stored at 4° C. • 4) The supernatant was completely discarded. • 5) The pellet was resuspended in platelet-staining-buffer ([…]). • 6) 20 μL of the activators thrombin receptor activating peptide (TRAP; 25 μM), ADP (5 or 20 μM) or thrombin (2 U/ml) were added. 35 μL of the fibrinogen receptor binding peptide RGD or its negative control, RED, were added where indicated. • 7) The mixture was incubated for 10 min. at room temperature in the dark. • 8) Antibodys were added directly (in a volume of 7 μL each except for LIBS-FITC at 3.5 μL) and incubated for 20-30 min. at room temperature in the dark. • 9) 500-600 μL platelet staining buffer was added. Then, the mixture was spun down for 5 min. at 1800 rpm (in a tabletop centrifuge). The supernatant was discarded, 300-400 μL staining-buffer were added. FACS measurements were done immediately.
For the following studies, antibodies against the following antigens were used:
The antibodies were coupled to the following fluorescence systems, where appropriate (either directly or via secondary antibodies) and measured by fluorescence-activated cell sorting (FACS):
Platelets which co-expressed the transgene GFP were gated for this marker by studying FITC fluorescence, and the same measurements were then exclusively related to this gate.

[4] = tested on: freshly isolated platelets; test: ELISA, release of β-thromboglobulin, freshly isolated platelets; assay type: cell-based, human; settings: thrombin, amount not stated (basal 59±6)
Experimental: (§3) Freshly drawn blood from human volunteers was transferred into a Falcon tube and spun down for 20 min. at 1080 rpm at 20° C. The supernatant yielded the PRP (platelet-rich-plasma) and was transferred to a new tube and diluted 1:4 with wash-buffer (1×PBS (w/o CA^2+ Mg^+) with 0.1% sodium azide, pH 7.2+/−0.2, filtered through a 0.2 μm filter prior to use and stored at 4° C.). The mixture was spun down for 10 min. at 2100 rpm at 20° C. The pellet was resuspended in staining buffer (1×PBS (w/o CA^2+ Mg^+) with 0.1% sodium azide and 2% fetal bovine serum) in a volume of 40 μl.
(§4) ELISA Assays for β-thromboglobulin (Asserachrom β-TG, Roche Diagnostics, Mannheim, Germany) and platelet-derived growth factor (PDGF; PDGF-AB Immunoassay, Qiagen, Hilden, Germany) were performed according to the manufacturers' instructions. By using these assays, the thrombin dependent release of both mediators from platelets was assessed.

[5] = tested on: stem cell-derived platelets after infection with Ad-GFP; test: ELISA, release of β-thromboglobulin, platelets after infection with Ad-GFP; assay type: cell-based; settings: thrombin vs basal
Source text: as §2, with “10 min. […]” for “10 min.”

[6] = tested on: stem cell-derived platelets after infection with Ad-GFP; test: ELISA, release of PDGF, platelets after infection with Ad-GFP; assay type: cell-based; settings: thrombin vs basal
Source text: as §2, with “10 min. […]” for “10 min.”

[7] = tested on: freshly isolated platelets; test: ELISA, release of PDGF, freshly isolated platelets; assay type: cell-based, human
Experimental: as §3, §4

[8] = tested on: stem cell-derived platelets; test: ELISA, thrombin dependent release of PDGF, stem cell-derived platelets; assay type: cell-based
Experimental: as §4

[9] = tested on: stem cell-derived platelets; test: ELISA, thrombin dependent release of β-thromboglobulin, stem cell-derived platelets; assay type: cell-based
Experimental: as §4

Molecule | CD 41 (FACS) [1] | CD42b (FACS) [1] | CD 61 (FACS) [1] | CD62P (FACS) [1] | CD 41 (FACS) [2] | CD42b (FACS) [2] | CD 61 (FACS) [2] | CD62P (FACS) [2] | PAC-1 (FACS) [2] | CD 41 (FACS) [3] | CD42b (FACS) [3] | CD 61 (FACS) [3] | CD62P (FACS) [3] | PAC-1 (FACS) [3] | further results
Nc1ncnc2c1ncn2[C@@H]1O[C@H](COP(=O)(O)OP(=O)(O)O)[C@@H](O)[C@H]1O [ADP] | 258 ± 24 | 46 ± 25 | 76 ± 9.5 | 121 ± 61 | 92 ± 37 | 58 ± 15 | 16 ± 6 | 75 ± 18 | 90 ± 26 | 216 ± 18 | 95 ± 63 | 333 ± 78 | 314 ± 153 | 198 ± 10 | 
thrombin |  |  |  |  |  |  |  |  |  |  |  |  |  |  | Release of β-thromboglobulin [4]: 115±10 U/ml; increase in βTG release [5]: four-fold; increase of PDGF release [6]: 123±7%; release of PDGF ([7]; 0.2 U thrombin (basal 214±11)): 566 ± 10 pg/mL; release of PDGF ([7]; 1 U thrombin (basal 214±11)): 664 ± 12 pg/mL; release of PDGF ([8]; 0.2 U thrombin (basal 280±95)): 590 ± 22 pg/mL; release of PDGF ([8]; 2 U thrombin (basal 280±95)): 610 pg/mL; Release of β-thromboglobulin ([9]; 0.2 U thrombin (basal 52±19)): 219±11 U/ml; Release of β-thromboglobulin ([9]; 2 U thrombin (basal 52±19)): 250±92 U/ml
thrombin receptor activating peptide [TRAP] | 248 ± 23 | 75 ± 41 | 75 ± 14 | 138 ± 69 | 99 ± 25 | 40 ± 2 | 19 ± 4.8 | 162 ± 50 | 122 ± 34 | 213 ± 34 | 81 ± 29 | 325 ± 73 | 299 ± 146 | 178 ± 41 | 
